Each structure is given as a SMILES string.

The results in this text go back to ChEMBL document CHEMBL3507680, “University of Dundee, Gates Library screen for HepG2 cell viability”.

The data set is described as follows: Human HepG2 cell viability assay in 384 well format. The format is toxicity, cell-based. More on the design: dose 125 nL, time 70.5 hour; concentration not given beside the values. Conditions: HepG2 cells, read-out: Inhibition.
As to `Cc1cc(NC(=O)NCC(O)COc2ccccc2)n(C)n1` (centres undefined), the cytotoxicity at 70.5 h is -11.6%.
As to `N#Cc1cn(C2CC2)c(=O)n(CC(O)c2ccccc2C(F)(F)F)c1=O` (centres undefined), the cytotoxicity at 70.5 h was -15.2%.
With `Cn1cc(Cl)cc1C(=O)N1CCN(CCc2cccs2)CC1` the figure was -4.15%.
Take `Cc1ccc(C(=O)N2CCCN(Cc3cccs3)CC2)n1C`: the cytotoxicity at 70.5 h is -7.93%.
With `CC(C)(CNC(=O)COc1cccc(F)c1)C(N)=O`, the cytotoxicity at 70.5 h was -9.07%.
With `Cc1cc(C)c(CNC(=O)N2CCN(c3ccncc3)CC2)c(=O)[nH]1` the figure was -9.77%.
Then `c1coc(-c2noc(CN3CCc4cncnc4C3)n2)c1`, with -7.56%.
Regarding `O=C(NCCCOCC1CC1)Nc1ccc(-n2cncn2)c(F)c1`, the cytotoxicity at 70.5 h is -13.3%.
With `Cc1cnn(CC(=O)N2CCC(Nc3ccc(C)nn3)CC2)c1` the figure was 12.8%.
With `Cc1ccsc1CNCC1CCCN1c1cccnn1` (centres undefined) the figure was 19.9%; with `COc1cccc(COCC(=O)N2CCCCCC2)c1`, 17.5%; with `CC(C)CCc1nc(CNCC2CCCN2c2cccnn2)cs1` (centres undefined), 12.1%.
In the case of `Cc1nc(CN2CCCC2Cn2cncn2)no1` (centres undefined), the cytotoxicity at 70.5 h came out at 13.1%.
Then `CC(C)Cc1nc(CN2CCCC2Cn2cncn2)no1` (centres undefined), with -7.43%; and `COCCc1noc(CN2CCCCC2Cn2cncn2)n1` (centres undefined), with -8.74%.
Then `CC(C)c1nc(CN2CCCC2Cn2cncn2)no1` (centres undefined), with 5.22%; and `CCc1nc(CNCC2CCCN2c2cccnn2)cs1` (centres undefined), with -6.05%; and `CC(C)c1nc(CNCC2CCCN2c2cccnn2)cs1` (centres undefined), with -8.04%.
Then `c1ccc(-c2nc(CN3CCCC3Cn3cncn3)no2)cc1` (centres undefined), with -13.3%.
Turning to `Cc1ncsc1C(=O)N(C)Cc1ccsc1`, the cytotoxicity at 70.5 h is -12.2%.
Then `CCN(CC1COc2ccccc2O1)C(=O)NCCCn1cncn1` (centres undefined), with -10.8%; and `O=C(Cn1nc(-c2ccc(F)cc2)oc1=O)NCCc1ccccc1`, with -10.7%; and `Cc1nn(C)c(C)c1C(=O)NCc1ccnc(OCC(F)(F)F)c1`, with -4.39%.
Regarding `COCCn1cc(NC(=O)NCC(c2cccc(F)c2)N(C)C)cn1` (centres undefined), the cytotoxicity at 70.5 h is -2.22%.
As for `Cc1cc(C)n(-c2ccc(CNCc3ccc(C)o3)cn2)n1`, the cytotoxicity at 70.5 h was -7.08%.
As to `CCn1cc(NC(=O)NCC(c2ccsc2)N(C)C)cn1` (centres undefined), the cytotoxicity at 70.5 h was -6.99%.
Regarding `O=C(c1ccccn1)N1CCCN(Cc2nnc(C3CC3)o2)CC1`, the cytotoxicity at 70.5 h was -9.21%.
Then `CN(Cc1ccco1)C(=O)CN1CCCC1Cn1cccn1` (centres undefined), with -3.69%.
Then `CN(Cc1ccco1)C(=O)CN1CCCCC1Cn1cncn1` (centres undefined), with -8.72%.
Then `O=C(NCc1cccc(N2CCCCC2=O)c1)[C@@H](O)c1ccccc1`, with -7.54%.
Regarding `COC(=O)N1CCCN(C(=O)c2cccc3cccnc23)CC1`, the cytotoxicity at 70.5 h is -7.61%.
With `Cc1nnc(N2CCC(NS(C)(=O)=O)CC2)c(C#N)c1C` the figure was -5.64%; with `Cc1cc(CN(C)C(=O)NC2CCN(S(C)(=O)=O)CC2)no1`, -9.54%.
With `Cc1noc(C2CCCN(C(=O)c3ccc(F)cc3F)C2)n1` (centres undefined) the figure was -8.76%; with `CC(O)CN(CC(=O)NC1CCCCC1)c1ccccc1` (centres undefined), 8.65%.
As to `Cc1ccc2cccc(C(=O)N3CCN(c4cccnn4)CC3)c2n1`, the cytotoxicity at 70.5 h is -9.4%.
On to `CCn1cnnc1C1CCN(C(=O)COc2ccccc2OC)CC1`, for which the cytotoxicity at 70.5 h amounted to 6.54%.
Consider `CN(Cc1coc(-c2ccccc2)n1)CC1CCCN1c1cccnn1` (centres undefined), for which the cytotoxicity at 70.5 h amounted to 4.57%.
On to `CC(C(=O)Nc1ccnn1C(C)C)N1CCCN(c2nccs2)CC1` (centres undefined), for which the cytotoxicity at 70.5 h is -3.68%.
Take `CCc1nc(CN2CCCN(C(=O)C3CCC3)CC2)cs1`: the cytotoxicity at 70.5 h amounted to 5.44%.
On to `CCc1nc(CN2CCCN(C(=O)c3occc3C)CC2)cs1`, for which the cytotoxicity at 70.5 h is -7.91%.
As for `O=C(c1ccccn1)N1CCC(Nc2cccnn2)CC1`, the cytotoxicity at 70.5 h was 2.46%.
On to `c1ccc(-c2nc(CNCCn3cccn3)cs2)cc1`, for which the cytotoxicity at 70.5 h is -4.17%.
On to `Cc1n[nH]c(=O)c2c(NC(=O)CN3CCC(C)CC3)oc(C)c12`, for which the cytotoxicity at 70.5 h was -10.7%.
As for `O=C(NCCn1nc2ccccn2c1=O)c1cc(-c2ccccc2)[nH]n1`, the cytotoxicity at 70.5 h was -5.05%.
With `CCCc1cc(C(=O)NCCn2nc3ccccn3c2=O)[nH]n1` the figure was -9.65%; with `CC(C)(C)c1cc(C(=O)NCCn2nc3ccccn3c2=O)[nH]n1`, -4.69%; with `Cc1occc1CN(C)Cc1nc2c(cnn2C)c(=O)[nH]1`, -3.6%.
With `Cc1ccc(CN(C)Cc2nc3c(cnn3C)c(=O)[nH]2)o1` the figure was -2.01%; with `CC1CN(CC(=O)N2CCCC2)CCN1c1ccc2nncn2n1` (centres undefined), 4.7%.
As for `Cc1cc(NC(=O)C(C)N2CCN(c3nc(C)cs3)CC2)on1` (centres undefined), the cytotoxicity at 70.5 h was -5.64%.
Take `CCn1cnnc1C1CCCN(C(=O)COc2ccc(Cl)cc2)C1` (centres undefined): the cytotoxicity at 70.5 h was -5.18%.
Then `Cc1cn2nc(N3CCCC3Cn3cncn3)sc2n1` (centres undefined), with -3.48%; and `Cc1cc(C(=O)N2CCC(Nc3cccnn3)CC2)no1`, with 11.5%; and `CN(Cc1cc(-c2ccccc2)no1)CC1CCCN1c1cccnn1` (centres undefined), with -8.09%.
Then `CC(O)CN1CCN(C(=O)c2cccc3[nH]ncc23)CC1` (centres undefined), with -3.67%; and `Cc1nnc(CN(C)CC2CCCN2c2cccnn2)o1` (centres undefined), with -3.53%; and `CC(C)(C)c1cn2nc(N3CCCCC3Cn3cncn3)sc2n1` (centres undefined), with 4.02%.
Then `CCC(O)CN1CCN(C(=O)c2cccc3[nH]ncc23)CC1` (centres undefined), with -10.6%; and `CSCCC(=O)NS(=O)(=O)c1ccc2c(c1)OCCO2`, with -7.91%.
As for `O=C(CCc1ccc(F)cc1)NS(=O)(=O)c1ccc2c(c1)OCCCO2`, the cytotoxicity at 70.5 h turned out to be 4.05%.
Then `O=C(CCSc1ccccc1)NS(=O)(=O)c1ccc2c(c1)OCCO2`, with -6.91%.
As for `CC(c1nc(C2CC2)no1)N1CCN(Cc2cccnc2)CC1` (centres undefined), the cytotoxicity at 70.5 h was -6.99%.
Then `CC(C)n1nc2c(cc1=O)CN(Cc1nnc(C3CC3)o1)CC2`, with -3.62%; and `CC(c1nc(C2CC2)no1)N1CCN(Cc2ccc(C#N)cc2)CC1` (centres undefined), with 5.31%; and `CCOc1cccc(NS(=O)(=O)c2cc(C(=O)O)cs2)c1`, with -11.8%.
With `CC1CCN(Cn2nc(-c3ccc(F)cc3)oc2=O)CC1` the figure was 18.6%.
Turning to `Cc1cccc(C(=O)NCc2ccc(S(N)(=O)=O)cc2)n1`, the cytotoxicity at 70.5 h was -12.2%.
As for `CC(NC(=O)NCCNc1ncccn1)c1cccs1` (centres undefined), the cytotoxicity at 70.5 h came to 1.09%.
On to `CC1CCCN(CCNC(=O)c2ccn(-c3ccccc3)n2)C1` (centres undefined), for which the cytotoxicity at 70.5 h is -5.27%.
Then `CC(C)c1cc(NC(=O)c2ccc(C(=O)NC(C)(C)C)cc2)[nH]n1`, with -4.05%; and `Cn1ccc(CN2CCC(Oc3ccccc3)CC2)cc1=O`, with -12%.
On to `c1cc2n(n1)CC(CNCc1ccc(OC3CCCCC3)nc1)CN2` (centres undefined), for which the cytotoxicity at 70.5 h was 0.985%.
Then `Cc1noc(C(C)C)c1C(=O)NCc1cc(F)cc(F)c1`, with -4.07%.
